Where two headings read alike, the source gives them in different places.
Tests used:
[1] = test system: CYP3A4
Experimental: The cells in the suspension were seeded in a 12-well culture plate coated with collagen at the density of 6×10^5 cells/well, and the plate was incubated one day and night in the CO2 incubator. Subsequently, the culture medium containing 10% fetal bovine serum was removed, 1 ml of fresh serum-free Lanford's medium was added to each well, and the cells were maintained in the CO2 incubator. The inside of the CO2 incubator used in the present invention was maintained at 37° C. in an atmosphere of 5% […] saturated with vapor.
10 μl of the sample was electrophoresed on polyacrylamide gel, and blotted onto PVDF transfer membrane.

[2] = test system: CYP3A mRNA; settings: hepatocytes
[3] = test system: CYP3A; assay: Induction of testosterone hydroxylation activity in primary human hepatocytes
[4] = test system: primary human hepatocytes; assay: Ethoxycoumarin dealkylation and coumarin conjugation activities in primary human hepatocytes; type: in vitro ADME; settings: HH-110 and HH-118; benz[a]anthracene 5 μmol/L, 3-methylcholanthrene 2 μmol/L; one day and night
Experimental: Lanford's medium (1 mL) containing 75 μmol/L of 7-ethoxycoumarin was added to each well after the culture medium was removed, and the plate was incubated for two hours in the CO2 incubator to allow reaction. Whole volume of each reaction was recovered and stored at −80° C. until measurement. The cells were washed twice with Lanford's medium, and maintained in the CO2 incubator again or directly used as a sample for another test. The stored reactions were thawed, and 50 μl of the reaction was analyzed by liquid chromatography, ethoxycoumarin dealkylation activity and glucuronate and sulfate conjugation activities were comprehensively estimated based on the production of 7-hydroxycoumarin, 7-hydroxycoumarin glucuronide and 7-hydroxycoumarin sulfate. Herein, 7-ethoxycoumarin is converted to 7-hydroxycoumarin after dealkylation, and then conjugated by glucuronate and sulfate.
The cells maintained under the conditions considered optimal in Examples 8 and 9 were continued to be added with 5 μmol/L of benz[a]anthracene or 2 μmol/L of 3-methylcholanthrene one day and night, and then the changes in ethoxycoumarin dealkylation activity was investigated. HH-110 and HH-118 cells were used.
Three samples per each condition i.e., control (Lane 1), adding of 3-methylcholanthrene (Lane 2) and benz[a]anthracene (Lane 3) which were measured independently, and the mean values are shown. […]

[5] = test system: CYP1A1/2; assay: Western blotting of CYP1A protein in cryopreserved primary human hepatocytes; settings: HH-110 and HH-118; 3-methylcholanthrene 2 μmol/L, benz[a]anthracene 5 μmol/L; one day and night; vs control
[6] = test system: primary human hepatocytes; assay: Effect of culture medium components on rifampicin induction of testosterone hydroxylation activity; type: cell-based
[7] = test system: CYP1A; assay: Induction of ethoxyresorfin dealkylation activity in primary human hepatocytes; type: in vitro ADME; settings: HH-110
Experimental: After the culture medium was completely removed from the culture plate, Lanford's medium (1 mL) containing 8 μmol/L of 7-ethoxyresorfin and 10 μmol/L of dicumarol was added to each well, and the plate was incubated for 30 minutes in the CO2 incubator to allow reaction. Whole volume of each reaction was recovered and stored at −80° C. until measurement. The cells were washed twice with Lanford's medium, and maintained in the CO2 incubator again or directly used as a sample for another test.
The stored reactions were thawed, and accurately 75 μL of each reaction was removed and mixed with 0.1 mol/L of acetate-sodium acetate buffer (pH 4.4, 25 μL) containing 15 Fishman units of β-glucuronidase [EC 3.2.1.31] and 120 Roy units of sulfatase [EC 3.1.6.1], followed by conjugation reaction for two hours at 37° C. Ethanol (200 μL) was added to the reaction and subjected to centrifugation. The supernatant (200 μL) was transferred to a 96-well microtiter plate. Microplate reader (Labsystems, Fluoroscan Ascent) was used to measure the fluorescence intensity at the wavelength of 590 nm when excited with excitation light at the wavelength of 544 nm. The resorfin production figured out from the result was used to measure the ethoxyresorfin dealkylation activity.
The cells maintained under the conditions considered optimal in Examples 8 and 9 were continued to be added with 1 μmol/L of 3-methylcholanthrene for three days, and the changes in ethoxyresorfin dealkylation activity was investigated. HH-110 cells were used.
Primary human hepatocytes (HH-110) were continued to be loaded with 1 μmol/L of 3-methylcholanthrene for three days between days 4th to 7th post seeding (indicated by a crossbar in the figure), and these cells had been maintained further for five days again in the conventional Lanford's medium. During this period, measurement of ethoxyresorfin dealkylation activity was conducted at 8 times to investigate the changes in the activity. Three samples per condition were measured independently, and the mean values are shown. The standard deviations are indicated by error bar. […]

CCC1(c2ccccc2)C(=O)NC(=O)NC1=O [phenobarbital]
CYP3A4 expression (western blotting) [1]: not marked | CYP 3A mRNA (CYP3A/β-actin) [2]: Increases | day of maximum testosterone hydroxylation activity after addition ([3]; HH-110, rifampicin 10 μmol/L, phenobarbital 1 mmol/L, loaded for four days): 4 days | testosterone hydroxylation activity ([3]; five donors (HH-018, HH-022, HH-029, HH-110, HH-118), rifampicin 10 μmol/L, phenobarbital 1 mmol/L, four days): Increases

c1ccc2cc3c(ccc4ccccc43)cc2c1 [benz[a]anthracene]
production of 7-hydroxycoumarin, 7-hydroxycoumarin glucronide and 7-hydroxycoumarin sulfate [4]: increases | CYP1A1/2 expression (western blotting) [5]: increased

C[C@]12C=CC(=O)C=C1CC[C@@H]1[C@@H]2[C@@H](O)C[C@@]2(C)[C@H]1CC[C@]2(O)C(=O)CO [predonisolone]
induction of testosterone hydroxylation activity with glucocorticoid instead of hydrocortisone in medium ([6]; HH-110, 1 μmol/L in medium, rifampicin 10 μmol/L for three days): can be observed

C[C@]12CCC(=O)C=C1CC[C@@H]1[C@@H]2[C@@H](O)C[C@@]2(C)[C@H]1CC[C@]2(O)C(=O)CO [hydrocortisone]
effect of medium component on maintenance of testosterone hydroxylation activity ([6]; HH-110, hydrocortisone-free vs conventional Landford's medium): essential

Clc1ccccc1C(c1ccccc1)(c1ccccc1)n1ccnc1 [clotrimazole]
CYP3A mRNA level, concentration-dependence of induction [2]: increase of the mRNA level was observed | testosterone hydroxylation activity, concentration-dependence of induction ([3]; HH-110, different concentrations): increase of the testosterone hydroxylation activity was not observed

Cc1ccc2cc3c(ccc4ccccc43)c3c2c1CC3 [3-methylcholanthrene]
ethoxyresorfin dealkylation activity during continued addition ([7]; 1 μmol/L, added for three days): gradually decreased | time of maximum ethoxyresorfin dealkylation activity ([7]; 1 μmol/L, added for three days): one day after 3-methylcholanthrene was added | ethoxyresorfin dealkylation activity after addition was stopped ([7]; after three days of 1 μmol/L): returned to their original state prior to the addition of the compounds in a day | production of 7-hydroxycoumarin, 7-hydroxycoumarin glucronide and 7-hydroxycoumarin sulfate [4]: increases | CYP1A1/2 expression (western blotting) [5]: increased

cholera toxin
effect of medium component on induction of testosterone hydroxylation activity [6]: enhancing factors

B1: Prolactin: component of Landford's medium (protein, UniProt P01239 31-229, looked up)
Prolactin: TPVCPNGPGNCQVSLRDLFDRAVMVSHYIHDLSSEMFNEFDKRYAQGKGFITMALNSCHTSSLPTPEDKEQAQQTHHEVLMSLILGLLRSWNDPLYHLVTEVRGMKGAPDAILSRAIEIEEENKRLLEGMEMIFGQVIPGAKETEPYPVWSGLPSLQTKDEDARYSAFYNLLHCLRRDSSKIDTYLKLLNCRIIYNNNC
effect of medium component on induction of testosterone hydroxylation activity ([6]; HH-110, component-free vs conventional Landford's medium, induction by rifampicin): enhancing factors

Source: patent US20040029153A1, “Method for estimating metabolic function of xenobiotic and induction thereof” (priority 2000, published 2004)
